Laboratory results reported in the NIST ThermoML archive (doi:10.1016/j.tca.2013.11.010).

How the values were obtained:
[1] = for surface tension liquid-gas: Drop volume; for viscosity / speed of sound / mass density: 101.33 kPa; for viscosity / speed of sound / mass density / vapor or sublimation pressure: Liquid; for viscosity: Capillary tube (Ostwald / Ubbelohde) method; for speed of sound: Sing-around technique in a fixed-path interferometer; for mass density: Vibrating tube method; for vapor or sublimation pressure: Ebulliometric method (Recirculating still)
[2] = refractive index (Na D-line) (dimensionless); settings: 101.33 kPa, Liquid, Standard Abbe refractometry
[3] = relative permittivity at various frequencies (dimensionless); settings: 101.3 kPa, Liquid, Frequency=2 MHz, Parallel plate capacitor

COC(=O)C(C)O (stereo unspecified) [methyl 2-hydroxypropanoate]
Settings	mass density, [1] [kg/m3]	refractive index, [2]	relative permittivity, [3]	speed of sound, [1] [m/s]	surface tension liquid-gas, [1] [mN/m]	vapor or sublimation pressure, [1] [kPa]	viscosity, [1] [mPa·s]
278.15 K	1109.61	–	18.379	1416.4	35.05	–	5.21
280.65 K	1106.86	–	18.095	1407.1	34.8	–	4.706
283.15 K	1104.11	1.41831	17.817	1397.6	34.53	–	4.281
285.65 K	1101.34	1.41722	17.634	1387.9	34.25	–	3.916
288.15 K	1098.57	1.41613	17.353	1378.2	34.04	–	3.588
290.65 K	1095.79	1.41502	17.06	1368.2	33.73	–	3.299
293.15 K	1093.01	1.41392	16.779	1358.4	33.47	–	3.043
295.65 K	1090.23	1.41281	16.493	1348.6	33.14	–	2.819
298.15 K	1087.43	1.41171	16.21	1338.8	32.9	–	2.618
300.65 K	1084.64	1.41061	15.923	1329.2	32.6	–	2.438
303.15 K	1081.83	1.40949	15.647	1319.5	32.25	0.692	2.277
305.65 K	1079.02	1.40837	15.412	1309.9	31.95	–	2.132
308.15 K	1076.2	1.40725	15.093	1300.4	31.58	0.967	2
310.65 K	1073.38	1.40614	14.861	1290.9	31.23	–	1.881
313.15 K	1070.55	1.40502	14.598	1281.4	30.87	1.333	1.772
315.65 K	1067.71	1.40386	14.355	1271.9	30.63	–	1.672
318.15 K	1064.86	1.40276	14.127	1262.4	30.34	1.821	1.58
320.65 K	1062.01	1.40164	13.9	1253	30.08	–	1.499
323.15 K	1059.15	1.40051	13.666	1243.5	29.71	2.399	1.425
325.65 K	1056.28	1.39937	13.359	1234.1	29.38	–	1.345
328.15 K	1053.4	1.39821	13.113	1224.6	29.03	3.173	1.29
330.65 K	1050.52	1.3971	12.879	1215.2	28.83	–	1.231
333.15 K	1047.63	1.39596	12.631	1205.7	28.52	4.139	1.175
335.65 K	1044.73	1.39479	12.319	1196.3	28.22	–	1.136
338.15 K	1041.83	1.39365	12.012	1186.9	27.92	5.319	1.075
343.15 K	–	–	–	–	–	6.889	–
348.15 K	–	–	–	–	–	8.652	–
353.15 K	–	–	–	–	–	10.81	–
358.15 K	–	–	–	–	–	13.49	–
363.15 K	–	–	–	–	–	16.6	–
368.15 K	–	–	–	–	–	20.3	–
373.15 K	–	–	–	–	–	24.7	–
378.15 K	–	–	–	–	–	29.68	–
383.15 K	–	–	–	–	–	35.5	–
388.15 K	–	–	–	–	–	42.28	–
393.15 K	–	–	–	–	–	50	–
398.15 K	–	–	–	–	–	58.68	–
403.15 K	–	–	–	–	–	68.64	–
408.15 K	–	–	–	–	–	79.85	–
413.15 K	–	–	–	–	–	92.5	–
